“Also recorded” adds a separate entry of the source.
Assays:
CD4+ and CD8+ T cells = assay: Phase I single ascending dose study in healthy volunteers: Tcon cells; format: in vivo, human
Experimental: (§1) A double-blind, randomized, placebo-controlled study is conducted to evaluate the safety, tolerability, pharmacokinetics, and pharmacodynamics of single ascending low sub-cutaneous doses of an RUR20kD-IL-2 composition (RUR20kD-IL-2) in healthy volunteers. […] Twelve subjects are randomized to each dose cohort, nine of whom received a single subcutaneous dose of RUR20kD-IL-2 while three received placebo. […] The drug product is supplied in single-use glass vials and stored at 2-8° C. […] Placebo is a commercially available 0.9% sodium chloride solution. A starting dose of 0.3 μg/kg is chosen using the minimally anticipated biological effect level (MABEL) approach and is supported by the no observed adverse effect level (NOAEL) in the most sensitive species from nonclinical toxicology studies.
(§2) The primary objective of the study is to evaluate the safety and tolerability of RUR20kD-IL-2 administered as a single subcutaneous dose. […] In a first phase of the study, immune markers are tested pre-dose up to 20 hours post-dose. Specifically, Tregs, CD4^+-T cells, CD8^+-T cells, natural killer (NK) cells, cytokines, soluble CD25, and RNA are tested in RUR20kD-IL-2- and placebo-receiving cohorts. In subsequent phases, the same immune markers are also tested at 4-, 5-, 6-, 7-, 8-, 10-, 12-, 15-, 18-, 20-, 25-, 30-, 40, and 50-days post-dose.

[1] = Single dose toxicokinetics in rats (SC, LS-2016-004); format: in vivo, Rat; settings: mean of three rats per time point
human IL-2Rβ = target: T1, human IL-2Rβ (Homo sapiens, UniProt P14784); assay: Affinity to the IL-2 receptor by surface plasmon resonance; format: binding; settings: SPR
T1 sequence (P14784 27-551): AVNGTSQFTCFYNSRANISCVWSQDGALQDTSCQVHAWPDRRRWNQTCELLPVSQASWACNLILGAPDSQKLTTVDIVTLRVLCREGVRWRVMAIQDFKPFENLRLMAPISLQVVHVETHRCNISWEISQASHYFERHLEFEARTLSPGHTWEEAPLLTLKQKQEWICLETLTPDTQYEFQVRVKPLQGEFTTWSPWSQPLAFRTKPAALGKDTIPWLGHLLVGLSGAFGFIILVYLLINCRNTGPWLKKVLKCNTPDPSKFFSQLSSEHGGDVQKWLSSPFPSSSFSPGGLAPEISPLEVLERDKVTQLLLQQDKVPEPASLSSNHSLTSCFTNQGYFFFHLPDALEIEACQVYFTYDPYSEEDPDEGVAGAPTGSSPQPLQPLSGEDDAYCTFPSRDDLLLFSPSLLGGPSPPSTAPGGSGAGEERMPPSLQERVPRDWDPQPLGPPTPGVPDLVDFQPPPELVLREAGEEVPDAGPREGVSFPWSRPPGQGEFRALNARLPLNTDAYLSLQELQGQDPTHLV
Experimental: Impaired IL-2 production and regulatory T cell dysfunctions have been implicated as an immunological mechanism in multiple autoimmune diseases. While low-dose IL-2 can be used to stimulate Tregs for clinical benefit, poor pharmacokinetics necessitates daily delivery, adverse events are dose-limiting, and Treg increases are modest and short-lived. […] The affinity to the IL-2 receptor is assessed by surface plasmon resonance. Activity in human PBMC can be measured by pSTAT5 induction in multiple lymphocyte populations using flow cytometry and time-of-flight mass cytometry (CyToF). In vivo activity after subcutaneous administration in C57BL/6 mice or cynomolgus monkey is measured by changes in lymphocyte numbers and activation by flow cytometry. Ex vivo Treg function is determined by the inhibition of Tcon proliferation by isolated splenic Treg. Efficacy is assessed in a model of systemic lupus erythematosus (SLE) using MRL/MpJ-Faslpr mice. […] In mice, a single administration leads to sustained Treg mobilization for 7-10 days in blood and spleen without Tcon activation, an effect concomitant with induction of Treg activation markers and increased ex vivo suppressive capacity. […] Finally, an RUR20kD-IL-2 composition is efficacious in mouse models of SLE.

[2] = tested on: CD4+FoxP3+CD25bright Tregs; assay: Phase I single ascending dose study in healthy volunteers: Tregs in peripheral blood by flow cytometry; format: in vivo, human
Experimental: as §1, §2

(1,3-bis(methoxypoly(ethylene glycol)10kDcarbamoyl)-2-propanoxy)-4-butanamide)interleukin-2) [RUR20kD-IL-2]
absolute number of CD8+ T cells and percentage of Ki67+ CD8+ T cells (CD4+ and CD8+ T cells; single SC 13.5 μg/kg): small increases
percentage or numbers of T cell populations (CD4+, CD8+) (CD4+ and CD8+ T cells; single SC dose, any dose): no changes in percentage or numbers of T cell populations (CD4+, CD8+); also recorded: no changes in percentages or numbers of conventional CD4+ or CD8+ T cells
AUCinf ([1]; single SC 0.01 mg/kg): 5230 ng·h/mL
AUClast ([1]; single SC 0.01 mg/kg): 5210 ng·h/mL
Cmax ([1]; single SC 0.01 mg/kg): 60 ng/mL
Half-life ([1]; single SC 0.01 mg/kg): 33.8 h
MRTinf ([1]; single SC 0.01 mg/kg): 63.1 h
tmax ([1]; single SC 0.01 mg/kg): 24 h
AUCinf ([1]; single SC 0.1 mg/kg): 73000 ng·h/mL
AUClast ([1]; single SC 0.1 mg/kg): 71100 ng·h/mL
Cmax ([1]; single SC 0.1 mg/kg): 640 ng/mL
Half-life ([1]; single SC 0.1 mg/kg): 58.6 h
MRTinf ([1]; single SC 0.1 mg/kg): 97.9 h
tmax ([1]; single SC 0.1 mg/kg): 24 h
AUCinf ([1]; single SC 1.5 mg/kg): 678000 ng·h/mL
AUClast ([1]; single SC 1.5 mg/kg): 672000 ng·h/mL
Cmax ([1]; single SC 1.5 mg/kg): 9300 ng/mL
Half-life ([1]; single SC 1.5 mg/kg): 47.3 h
MRTinf ([1]; single SC 1.5 mg/kg): 73.7 h
tmax ([1]; single SC 1.5 mg/kg): 48 h
affinity for human IL-2Rβ relative to IL-2Ra and IL-2Rαβ complexes (human IL-2Rβ): greatly attenuated affinity
mean increase in numbers of CD4+FoxP3+CD25bright Tregs compared to placebo ([2]; single SC 3.0 μg/kg): 3.0 fold
mean increase in numbers of CD4+FoxP3+CD25bright Tregs compared to pre-dose ([2]; single SC 3.0 μg/kg): 3 fold
time of peak (maximal) Treg response ([2]; single SC 3.0 μg/kg): 84 h
mean increase in numbers of CD4+FoxP3+CD25bright Tregs compared to placebo ([2]; single SC 6.0 μg/kg): 3.5 fold
mean increase in numbers of CD4+FoxP3+CD25bright Tregs compared to pre-dose ([2]; single SC 6.0 μg/kg): 3.5 fold
mean increase in numbers of CD4+FoxP3+CD25bright Tregs compared to placebo ([2]; single SC 9.0 μg/kg): 4.1 fold
mean increase in numbers of CD4+FoxP3+CD25bright Tregs compared to pre-dose ([2]; single SC 9.0 μg/kg): 4.1 fold
mean increase in numbers of CD4+FoxP3+CD25bright Tregs compared to placebo ([2]; single SC 13.5 μg/kg): 5.0 fold
mean increase in numbers of CD4+FoxP3+CD25bright Tregs compared to pre-dose ([2]; single SC 13.5 μg/kg): 5 fold
mean increase in numbers of CD4+FoxP3+CD25bright Tregs compared to pre-dose ([2]; single SC 20.0 μg/kg): 8.1 fold
increase in mean peak Treg:CD8 ratio over baseline ([2]; single SC 28 μg/kg): 15 fold
mean peak increase in numbers of CD25-bright Tregs above pre-dose values ([2]; single SC 28 μg/kg): 17 fold
mean peak percentage of CD25bright Tregs ([2]; single SC 28.0 μg/kg, increased from 0.5%): 7.4%
numbers of Tregs versus placebo subjects ([2]; single SC 0.3 and 1.0 μg/kg): no change in the numbers of Tregs; also recorded: No changes in total CD4+ Tregs
total CD4+FoxP3+CD25+ Treg population ([2]; single SC 3.0, 6.0, 9.0 and 13.5 μg/kg): dose-dependent increase in the total CD4+FoxP3+CD25+ Treg population
doses at which increases in Treg activation markers (ICOS and CTLA4) were observed ([2]; single SC dose): ≥ 0.0135 mg/kg
time until CD4+FoxP3+CD25bright Treg levels return to baseline ([2]; single SC dose, 3.0 μg/kg and above): 20 to 25 days
days at which Treg levels peak ([2]; single SC dose, 3.0 to 28.0 μg/kg cohorts): 10 to 12 days
